Reference: patent publication US8557873B2, “Method for treating septic shock or endotoxemia” (priority 2009, dated 2013)
“Also recorded” adds a separate entry of the source.

How the values were obtained:
[1] = tested on: E. coli lipopolysacharide (LPS) induced septic shock/endotoxemia in male balb/c mice; assay: Survival of mice injected with E. coli LPS, treated 30 minutes later with compound i.p., observed three days; format: in vivo; conditions: for Survival rate (%) / Survival/total mice: 30 min after LPS 0.4 mg i.p., three days; for Therapeutic effect compared to the other compounds or to recombinant APC: comparison in words; for Concentration with the best therapeutic effect: concentration in 1 ml injected i.p., effect goes down above it; for Best treatment volume: per body weight of the mouse
Experimental: The mice used in this invention were male balb/c having body weights around 20 g, five to six weeks old. Each mouse was intraperitoneally injected with E. coli lipopolysacharide (LPS) 0.4 mg in 1 ml sterile saline. After 30 minutes, each mouse was intraperitoneally injected with one of the following compounds: amylamine, isoamylamine, 2-methylbutamine, n-methylbutamine. The above compounds were dissolved in 1 ml sterile saline to be pH 7.4. The E. coli LPS was serotype 0111:B4 obtained from Sigma (St. Louis, Mo.).
(§1) Each mouse was intraperitoneally injected with E. coli lipopolysaccharide (LPS) 0.4 mg in 1 ml saline, and was then injected with 1 ml amylamine (represented by SS1) of different concentrations (0%, 0.1%, and 0.3%) 30 minutes later. […] The therapeutic effect goes down if the dose above 0.3%. The best treatment volume of amylamine is 0.15 ml/Kg body weight of the mouse.
as §1, with “lipopolysacharide” for “lipopolysaccharide”, “and” for “and was”, “isoamylamine” for “amylamine”, “SS2)” for “SS1)”, “0.1%.” for “0.3%.”, “0.05 ml/kg” for “0.15 ml/Kg”
as §1, with “lipopolysacharide” for “lipopolysaccharide”, “and” for “and was”, “2-methylbutamine” for “amylamine”, “SS3)” for “SS1)”, “0.1%.” for “0.3%.”, “0.05 ml/kg” for “0.15 ml/Kg”
Each mouse was intraperitoneally injected with E. coli lipopolysacharide (LPS) 0.4 mg in 1 ml saline, and then 30 minutes later injected with 1 ml n-methylbutamine (represented by SS9) of different concentrations (0%, 0.1%, 0.3% and 1.0%) 30 minutes later. […] The therapeutic effect goes down if the dose above 1.0%. The best treatment volume of n-methylbutamine is 0.5 ml/kg body weight of the mouse. The dose of SS9 above 1.0% is toxic to mouse.

[2] = tested on: patients with severe sepsis; conditions: cited from earlier work

| Molecule | Survival rate (%) ([1]; 0.1% in 1 ml i.p.) | Survival/total mice ([1]; 0.1% in 1 ml i.p.) | Survival rate (%) ([1]; 0.3% in 1 ml i.p.) | Survival/total mice ([1]; 0.3% in 1 ml i.p.) | Therapeutic effect compared to the other compounds or to recombinant APC [1] | Concentration with the best therapeutic effect [1] [%] | Best treatment volume [1] [mL/kg] | Survival rate (%) ([1]; 1.0% in 1 ml i.p.) | Survival/total mice ([1]; 1.0% in 1 ml i.p.) | Dose toxic to mouse ([1]; concentration in 1 ml i.p.) | Absolute decrease in mortality [2] [%] |
| --- | --- | --- | --- | --- | --- | --- | --- | --- | --- | --- | --- |
| CCCCCN [SS1, amylamine] | 18 | 3/17 | 53 | 9/17 | higher therapeutic effects and decreased mortality over recombinant APC | 0.3 | 0.15 | – | – | – | – |
| CC(C)CCN [SS2, isoamylamine] | 83 | 15/18 | 50 | 9/18 | more significant therapeutic effect; also recorded: higher therapeutic effects and decreased mortality over recombinant APC | 0.1 | 0.05 | – | – | – | – |
| CCC(C)CN (centres unmarked) [SS3, 2-methylbutamine] | 53 | 16/30 | 33 | 10/30 | higher therapeutic effects and decreased mortality over recombinant APC | 0.1 | 0.05 | – | – | – | – |
| CCCCNC [SS9, n-methylbutamine] | 39 | 5/13 | 54 | 7/13 | higher therapeutic effects and decreased mortality over recombinant APC | 1.0 | 0.5 | 62 | 8/13 | above 1.0% | – |
| activated protein C | – | – | – | – | – | – | – | – | – | – | 6.1 |
